Data as given in ChEMBL document CHEMBL3045446, “In vitro antimicrobial and antimycobacterial activity of some chalcones and their derivatives” (2013).
Values after ≈ are worked out from the molar mass of the structure shown.

Legend:
Assay type in all cases: functional
[1] = system: Mycobacterium tuberculosis; assay: Antituberculosis activity against Mycobacterium tuberculosis H37Rv assessed as growth inhibition after 12 to 28 days by L-J MIC method; conditions: for MIC: Mycobacterium tuberculosis, H37Rv
Aspergillus clavatus [2] = assay: Antimicrobial activity against Aspergillus clavatus MTCC 1323 assessed as diameter of growth inhibition zone after 48 hr
Proteus vulgaris [3] = assay: Antimicrobial activity against Proteus vulgaris MTCC 1771 assessed as growth inhibition after 24 hr by agar streak dilution method; conditions: MTCC 1771, 24 h
Escherichia coli [4] = assay: Antimicrobial activity against Escherichia coli MTCC 739 assessed as diameter of growth inhibition zone after 24 hr
Bacillus cereus [5] = assay: Antimicrobial activity against Bacillus cereus MTCC 430 assessed as growth inhibition after 24 hr by agar streak dilution method; conditions: MTCC 430, 24 h
Bacillus cereus [6] = assay: Antimicrobial activity against Bacillus cereus MTCC 430 assessed as diameter of growth inhibition zone after 24 hr
Salmonella typhi [7] = assay: Antimicrobial activity against Salmonella enterica subsp. enterica serovar Typhi MTCC 733 assessed as diameter of growth inhibition zone after 24 hr
Aspergillus niger [8] = assay: Antimicrobial activity against Aspergillus niger MTCC 282 assessed as diameter of growth inhibition zone after 48 hr
Klebsiella pneumoniae [9] = assay: Antimicrobial activity against Klebsiella pneumoniae MTCC 109 assessed as diameter of growth inhibition zone after 24 hr
Aspergillus clavatus [10] = assay: Antimicrobial activity against Aspergillus clavatus MTCC 1323 assessed as growth inhibition after 48 hr by agar streak dilution method; conditions: MTCC 1323, 48 h
Pseudomonas aeruginosa [11] = assay: Antimicrobial activity against Pseudomonas aeruginosa MTCC 741 assessed as growth inhibition after 24 hr by agar streak dilution method; conditions: MTCC 741, 24 h
Aspergillus fumigatus [12] = assay: Antimicrobial activity against Aspergillus fumigatus MTCC 343 assessed as diameter of growth inhibition zone after 48 hr
Candida albicans [13] = assay: Antimicrobial activity against Candida albicans MTCC 183 assessed as diameter of growth inhibition zone after 48 hr
Staphylococcus aureus [14] = assay: Antimicrobial activity against Staphylococcus aureus MTCC 96 assessed as growth inhibition after 24 hr by agar streak dilution method; conditions: MTCC 96, 24 h
Candida albicans [15] = assay: Antimicrobial activity against Candida albicans MTCC 183 assessed as growth inhibition after 48 hr by agar streak dilution method; conditions: MTCC 183, 48 h
Proteus vulgaris [16] = assay: Antimicrobial activity against Proteus vulgaris MTCC 1771 assessed as diameter of growth inhibition zone after 24 hr
Aspergillus niger [17] = assay: Antimicrobial activity against Aspergillus niger MTCC 282 assessed as growth inhibition after 48 hr by agar streak dilution method; conditions: MTCC 282, 48 h
Salmonella typhi [18] = assay: Antimicrobial activity against Salmonella enterica subsp. enterica serovar Typhi MTCC 733 assessed as growth inhibition after 24 hr by agar streak dilution method; conditions: MTCC 733, 24 h
Shigella flexneri [19] = assay: Antimicrobial activity against Shigella flexneri MTCC1457 assessed as diameter of growth inhibition zone after 24 hr
Pseudomonas aeruginosa [20] = assay: Antimicrobial activity against Pseudomonas aeruginosa MTCC 741 assessed as diameter of growth inhibition zone after 24 hr
Klebsiella pneumoniae [21] = assay: Antimicrobial activity against Klebsiella pneumoniae MTCC 109 assessed as growth inhibition after 24 hr by agar streak dilution method; conditions: MTCC 109, 24 h
Shigella flexneri [22] = assay: Antimicrobial activity against Shigella flexneri MTCC1457 assessed as growth inhibition after 24 hr by agar streak dilution method; conditions: MTCC1457, 24 h
Aspergillus fumigatus [23] = assay: Antimicrobial activity against Aspergillus fumigatus MTCC 343 assessed as growth inhibition after 48 hr by agar streak dilution method; conditions: MTCC 343, 48 h
Staphylococcus aureus [24] = assay: Antimicrobial activity against Staphylococcus aureus MTCC 96 assessed as diameter of growth inhibition zone after 24 hr
Escherichia coli [25] = assay: Antimicrobial activity against Escherichia coli MTCC 739 assessed as growth inhibition after 24 hr by agar streak dilution method; conditions: MTCC 739, 24 h

| Compound | growth inhibition (GI) [1] [%] | MIC [1] [µg/mL] | diameter of the inhibition zone (DIZ) (Aspergillus clavatus [2]) [mm] | MIC (Proteus vulgaris [3]) [µg/mL] | diameter of the inhibition zone (DIZ) (Escherichia coli [4]) [mm] | MIC (Bacillus cereus [5]) [µg/mL] | diameter of the inhibition zone (DIZ) (Bacillus cereus [6]) [mm] | diameter of the inhibition zone (DIZ) (Salmonella typhi [7]) [mm] | diameter of the inhibition zone (DIZ) (Aspergillus niger [8]) [mm] | diameter of the inhibition zone (DIZ) (Klebsiella pneumoniae [9]) [mm] | MIC (Aspergillus clavatus [10]) [µg/mL] | MIC (Pseudomonas aeruginosa [11]) [µg/mL] | diameter of the inhibition zone (DIZ) (Aspergillus fumigatus [12]) [mm] | diameter of the inhibition zone (DIZ) (Candida albicans [13]) [mm] | MIC (Staphylococcus aureus [14]) [µg/mL] | MIC (Candida albicans [15]) [µg/mL] | diameter of the inhibition zone (DIZ) (Proteus vulgaris [16]) [mm] | MIC (Aspergillus niger [17]) [µg/mL] | MIC (Salmonella typhi [18]) [µg/mL] | diameter of the inhibition zone (DIZ) (Shigella flexneri [19]) [mm] | also measured |
| --- | --- | --- | --- | --- | --- | --- | --- | --- | --- | --- | --- | --- | --- | --- | --- | --- | --- | --- | --- | --- | --- |
| N#Cc1c(-c2ccc(Cl)cc2Cl)cc(-c2ccc(Nc3cc(=O)oc4ccccc34)cc2)nc1N | 99 | 25 (≈ 50.1 µM) | 22 | 3.12 (≈ 6.25 µM) | 20 | 6.25 (≈ 12.5 µM) | 26 | 24 | 22 | 23 | 25 (≈ 50.1 µM) | 6.25 (≈ 12.5 µM) | 23 | 23 | 3.12 (≈ 6.25 µM) | 12.5 (≈ 25 µM) | 28 | 12.5 (≈ 25 µM) | 12.5 (≈ 25 µM) | 23 | diameter of the inhibition zone (DIZ) (Pseudomonas aeruginosa [20]): 25 mm; MIC (Klebsiella pneumoniae [21]): 12.5 µg/mL (≈ 25 µM); MIC (Shigella flexneri [22]): 12.5 µg/mL (≈ 25 µM); MIC (Aspergillus fumigatus [23]): 12.5 µg/mL (≈ 25 µM); diameter of the inhibition zone (DIZ) (Staphylococcus aureus [24]): 28 mm; MIC (Escherichia coli [25]): 12.5 µg/mL (≈ 25 µM) |
| COc1ccc(-c2cc(-c3ccc(Nc4cc(=O)oc5ccccc45)cc3)nc(N)n2)cc1OC | 98 | 50 (≈ 107 µM) | 23 | 25 (≈ 53.6 µM) | 25 | 12.5 (≈ 26.8 µM) | 20 | 22 | 27 | 23 | 12.5 (≈ 26.8 µM) | 12.5 (≈ 26.8 µM) | 25 | 26 | 6.25 (≈ 13.4 µM) | 6.25 (≈ 13.4 µM) | 21 | 6.25 (≈ 13.4 µM) | 12.5 (≈ 26.8 µM) | 24 | diameter of the inhibition zone (DIZ) (Pseudomonas aeruginosa [20]): 23 mm; MIC (Klebsiella pneumoniae [21]): 12.5 µg/mL (≈ 26.8 µM); MIC (Shigella flexneri [22]): 12.5 µg/mL (≈ 26.8 µM); MIC (Aspergillus fumigatus [23]): 12.5 µg/mL (≈ 26.8 µM); diameter of the inhibition zone (DIZ) (Staphylococcus aureus [24]): 27 mm; MIC (Escherichia coli [25]): 6.25 µg/mL (≈ 13.4 µM) |
| CC(=O)N1N=C(c2ccc(Nc3cc(=O)oc4ccccc34)cc2)CC1c1ccccc1 (stereo not given) | 95 | 1000 (≈ 2360 µM) | 16 | 100 (≈ 236 µM) | <10 | 100 (≈ 236 µM) | 13 | 13 | <10 | 11 | 100 (≈ 236 µM) | 100 (≈ 236 µM) | 13 | 12 | 100 (≈ 236 µM) | 100 (≈ 236 µM) | 13 | 100 (≈ 236 µM) | 100 (≈ 236 µM) | <10 | diameter of the inhibition zone (DIZ) (Pseudomonas aeruginosa [20]): 10 mm; MIC (Klebsiella pneumoniae [21]): 100 µg/mL (≈ 236 µM); MIC (Shigella flexneri [22]): 100 µg/mL (≈ 236 µM); MIC (Aspergillus fumigatus [23]): 100 µg/mL (≈ 236 µM); diameter of the inhibition zone (DIZ) (Staphylococcus aureus [24]): <10 mm; MIC (Escherichia coli [25]): 100 µg/mL (≈ 236 µM) |
| O=C(/C=C/c1ccccc1Br)c1ccc(Nc2cc(=O)oc3ccccc23)cc1 | 97 | 500 (≈ 1120 µM) | 12 | 100 (≈ 224 µM) | 11 | 100 (≈ 224 µM) | 11 | 11 | 12 | 14 | 100 (≈ 224 µM) | 100 (≈ 224 µM) | 15 | 18 | 100 (≈ 224 µM) | 50 (≈ 112 µM) | <10 | 100 (≈ 224 µM) | 100 (≈ 224 µM) | 12 | diameter of the inhibition zone (DIZ) (Pseudomonas aeruginosa [20]): <10 mm; MIC (Klebsiella pneumoniae [21]): 100 µg/mL (≈ 224 µM); MIC (Shigella flexneri [22]): 100 µg/mL (≈ 224 µM); MIC (Aspergillus fumigatus [23]): 100 µg/mL (≈ 224 µM); diameter of the inhibition zone (DIZ) (Staphylococcus aureus [24]): 13 mm; MIC (Escherichia coli [25]): 100 µg/mL (≈ 224 µM) |
| CC(=O)N1N=C(c2ccc(Nc3cc(=O)oc4ccccc34)cc2)CC1c1ccc(C)cc1 (stereo not given) | 98 | 200 (≈ 457 µM) | 11 | 50 (≈ 114 µM) | 12 | 100 (≈ 229 µM) | 16 | 14 | 19 | 13 | 100 (≈ 229 µM) | 100 (≈ 229 µM) | 15 | 14 | 100 (≈ 229 µM) | 100 (≈ 229 µM) | 20 | 50 (≈ 114 µM) | 100 (≈ 229 µM) | 20 | diameter of the inhibition zone (DIZ) (Pseudomonas aeruginosa [20]): 16 mm; MIC (Klebsiella pneumoniae [21]): 100 µg/mL (≈ 229 µM); MIC (Shigella flexneri [22]): 50 µg/mL (≈ 114 µM); MIC (Aspergillus fumigatus [23]): 100 µg/mL (≈ 229 µM); diameter of the inhibition zone (DIZ) (Staphylococcus aureus [24]): 16 mm; MIC (Escherichia coli [25]): 100 µg/mL (≈ 229 µM) |
